In data set [1] the test system is Plutella xylostella (diamond back moth). The experiment in a line: Plutella xylostella (larvicide, feeding/residual contact activity, preventive), artificial diet MTP. It counts as in vivo. The note with it: 120 h, read-out: activity (larval mortality, antifeedant, growth regulation). On the procedure:
Plutella xylostella (Diamond Back Moth)
(§1) (Larvicide, Feeding/Residual Contact Activity, Preventive)
24-well microtiter plate (MTP) with artificial diet was treated with test solutions by pipetting. After drying, the MTP's were infested with larvae (L2) (10-15 per well). After an incubation period of 5 days, samples were checked for larval mortality, antifeedant and growth regulation.

Data set [2] concerns Myzus persicae (green peach aphid). The experiment in a line: Activity against Myzus persicae (mixed population, systemic/feeding activity, curative), pea seedling roots in test solution. It counts as in vivo. The note with it: 144 h, read-out: activity (mortality and special effects on the plant). The text has this:
(§2) Activity Against Myzus persicae (Green Peach Aphid)
(Mixed Population, Systemic/Feeding Activity, Curative)
Roots of pea seedlings, infested with an aphid population of mixed ages, were placed directly in the test solutions. 6 days after introduction, samples were checked for mortality and special effects on the plant.

The subject of data set [3] is Thrips tabaci (onion thrips). Nature of the data set: Activity against Thrips tabaci (mixed population, feeding/residual contact activity, preventive), sunflower leaf discs. It counts as in vivo. To be noted: foliar, 144 h, read-out: activity (mortality and special effects). On the procedure: Activity Against Thrips tabaci (Onion Thrips)
(§3) (Mixed Population, Feeding/Residual Contact Activity, Preventive)
Sunflower leaf discs were placed on agar in a 24-well microtiter plate and sprayed with test solutions. After drying, the leaf discs were infested with a thrips population of mixed ages. After an incubation period of 6 days, samples were checked for mortality and special effects (e.g. phytotoxicity).

For data set [4], the system named is Myzus persicae (green peach aphid). The experiment in a line: Activity against Myzus persicae (mixed population, feeding/residual contact activity, preventive), sunflower leaf discs. It counts as in vivo. To be noted: foliar, 144 h, read-out: activity (mortality and special effects). On the procedure: as §2, §3
Sunflower leaf discs were placed on agar in a 24-well microtiter plate and sprayed with test solutions. After drying, the leaf discs were infested with an aphid population of mixed ages. After an incubation period of 6 days, samples were checked for mortality and special effects (e.g. phytotoxicity).

Data set [5] relates to Nilaparvata lugens (brown rice planthopper). Nature of the data set: Activity against Nilaparvata lugens (larvicide, feeding/contact), rice seedlings. It is filed as in vivo. To be noted: read-out: activity (mortality, growth regulation, effects on the F1 generation). On the procedure: Activity Against Nilaparvata lugens (Brown Rice Planthopper)
(Larvicide, Feeding/Contact)
Rice seedlings were treated with the diluted test solutions in a spray chamber. After drying, they were infested with 20 N3 nymphs (2 replicates). 6-12 days after the treatment samples were checked for mortality, growth regulation, and effects on the F, generation.

The subject of data set [6] is Spodoptera littoralis (Egyptian cotton leafworm). The experiment in a line: Activity against Spodoptera littoralis (larvicide, feeding/residual contact activity, preventive), cotton leaf discs. The note with it: foliar, 72 h, read-out: activity (mortality, repellent effect, feeding behaviour, growth regulation). It counts as in vivo.
Description: Activity Against Spodoptera littoralis (Egyptian Cotton Leafworm)
as §1
Cotton leaf discs were placed on agar in a 24-well microtiter plate and sprayed with test solutions. After drying, the leaf discs were infested with 5 L1 larvae. The samples were checked for mortality, repellent effect, feeding behaviour, and growth regulation 3 days after treatment.

In data set [7] the test system is Heliothis virescens (tobacco budworm). Nature of the data set: Activity against Heliothis virescens (ovo-larvicide, feeding/contact activity, curative), eggs on artificial diet. It is filed as in vivo. The note with it: read-out: activity (egg mortality, larval mortality, growth regulation). On the procedure:
Activity Against Heliothis virescens (Tobacco Budworm)
(Ovo-Larvicide, Feeding/Contact Activity, Curative)
Eggs (0-24 h old) were placed in 24-well microtiter plate on artificial diet and treated with test solutions by pipetting. After an incubation period of 4 days, samples were checked for egg mortality, larval mortality, and growth regulation.

Data set [8] concerns Diabrotica balteata (corn root worm). The experiment in a line: Diabrotica balteata (larvicide, feeding/residual contact activity, preventive), artificial diet MTP. It is filed as in vivo. To be noted: 120 h, read-out: activity (larval mortality, antifeedant, growth regulation). On the procedure:
Diabrotica balteata (Corn Root Worm)
as §1
24-well microtiter plate (MTP) with artificial diet was treated with test solutions by pipetting. After drying, the MTP's were infested with larvae (L2) (6-10 per well). After an incubation period of 5 days, samples were checked for larval mortality, antifeedant and growth regulation.

The mark [9] stands for this setting: 400 ppm, L2 larvae on treated artificial diet, 5 days incubation.
[10] abbreviates: 400 ppm, mixed-age aphids on sprayed sunflower leaf discs, 6 days incubation.
Setting [11] is: 400 ppm, N3 nymphs on sprayed rice seedlings, 6-12 days after treatment.
Where [12] appears, read: 400 ppm, L1 larvae on sprayed cotton leaf discs, 3 days after treatment.
[13] abbreviates: 400 ppm, eggs 0-24 h old on artificial diet, 4 days incubation.

Read-outs that look alike come from different tables or passages of the source.

The term melting point denotes the temperature of the solid-liquid transition.

`COc1cc(C(=O)Nc2c(C)cc3cn(C(=O)OC(C)(C)C)nc3c2C(=O)NC(C)C)n(-c2ncccc2Cl)n1` came in with a melting point of 161 to 162 °C.
On the same count and under the same terms, as for `COc1cc(C(=O)Nc2c(C)cc3cn(Cc4ccccn4)nc3c2C(=O)NC(C)C)n(-c2ncccc2Cl)n1`, the figure is 156 to 160 °C; as for `CCCCCCCCN(C)C(=O)n1cc2cc(C)c(NC(=O)c3cc(OC)nn3-c3ncccc3Cl)c(C(=O)NC(C)C)c2n1`, 66 to 70 °C.
As to `COc1cc(C(=O)Nc2c(C)cc3cn(-c4nc(Cl)nc(Cl)n4)nc3c2C(=O)NC(C)C)n(-c2ncccc2Cl)n1`, the melting point was 216 °C (dec.).
`COc1cc(C(=O)Nc2c(C)cc3cn(-c4nc(OC)nc(OC)n4)nc3c2C(=O)NC(C)C)n(-c2ncccc2Cl)n1` had a melting point of 226 to 230 °C.
Still for that read-out and setting: to `CCOC(=O)CSC(=O)n1cc2cc(C)c(NC(=O)c3cc(OC)nn3-c3ncccc3Cl)c(C(=O)NC(C)C)c2n1` belongs 85 to 86 °C.
`COCn1ncc2cc(Cl)c(NC(=O)c3cc(C(F)(F)F)nn3-c3ncccc3Cl)c(C(=O)NC(C)C)c21` [P.2]: the mortality at 400 ppm in [1], in data set [2], in data set [3], in data set [4], in data set [5] and in data set [6] was greater than 80% in each case. Also, the mortality at 400 ppm in data set [7] and in data set [8] was greater than 80% in each case.
With `COCCOCn1cc2cc(C)c(NC(=O)c3cc(OC)nn3-c3ncccc3Cl)c(C(=O)NC(C)C)c2n1` [P.12, 6-{[2-(3-chloro-pyridin-2-yl)-5-methoxy-2H-pyrazole-3-carbonyl]-amino}-2-(2-methoxy-ethoxymethyl)-5-methyl-2H-indazole-7-carboxylic acid isopropylamide], the mortality at 400 ppm in [1], in [2], in data set [3], in data set [4], in [5] and in [6] was greater than 80% each time. Moreover, the mortality at 400 ppm in data set [7] was greater than 80%.
Turning to `COCn1ncc2cc(C)c(NC(=O)c3cc(OC)nn3-c3ncccc3Cl)c(C(=O)NC(C)C)c21` [P.19], the mortality at 400 ppm in data set [1], in [2], in [3], in data set [4], in [5] and in data set [6] was greater than 80% in each case. The mortality at 400 ppm in data set [7] and in [8] was greater than 80% in each case.
Regarding `CCCCCCCCCCCCCCCCOCCOCCOC(=O)n1cc2cc(C)c(NC(=O)c3cc(OC)nn3-c3ncccc3Cl)c(C(=O)NC(C)C)c2n1` [P.23], the mortality at 400 ppm was greater than 80% in data set [1] (setting [9]); greater than 80% in [3] (400 ppm, mixed-age thrips on sprayed sunflower leaf discs, 6 days incubation); greater than 80% in data set [4] (setting [10]); greater than 80% in [5] (setting [11]); greater than 80% in [6] (setting [12]); greater than 80% in data set [7] (setting [13]). Further, the mortality at 400 ppm in data set [8] (setting [9]) is greater than 80%.
For `COc1cc(C(=O)Nc2c(C)cc3cn(C(=O)C(C)(C)C)nc3c2C(=O)NC(C)C)n(-c2ncccc2Cl)n1` [P.26], the mortality at 400 ppm in [1], in [2], in data set [4], in data set [5], in [6] and in data set [7] was greater than 80% throughout. Moreover, in data set [8], the mortality at 400 ppm was greater than 80%.
For the molecule `COc1cc(C(=O)Nc2c(C)cc3cn(C(=O)CC(C)(C)C)nc3c2C(=O)NC(C)C)n(-c2ncccc2Cl)n1` [P.27], the mortality at 400 ppm in data set [1], in data set [2], in data set [3], in [4], in [6] and in data set [7] was greater than 80% each time. The mortality at 400 ppm in data set [8] was greater than 80%.
Regarding `CCCCCCCCCCCCOCCOC(=O)n1cc2cc(C)c(NC(=O)c3cc(OC)nn3-c3ncccc3Cl)c(C(=O)NC(C)C)c2n1` [P.29], the mortality at 400 ppm was greater than 80% in data set [1] (setting [9]); greater than 80% in [2] (400 ppm, systemic, roots of infested pea seedlings in test solution, 6 days); greater than 80% in data set [4] (setting [10]); greater than 80% in data set [5] (setting [11]); greater than 80% in data set [6] (setting [12]); greater than 80% in data set [7] (setting [13]). Further, the mortality at 400 ppm in [8] (setting [9]) is greater than 80%.
Turning to `CCCC(C)(C)C(=O)n1cc2cc(C)c(NC(=O)c3cc(OC)nn3-c3ncccc3Cl)c(C(=O)NC(C)C)c2n1` [P.31], the mortality at 400 ppm in [1], in data set [2], in [3], in data set [4], in data set [5] and in data set [6] was greater than 80% in each case. The mortality at 400 ppm in data set [7] and in data set [8] was greater than 80% throughout.
`COc1cc(C(=O)Nc2c(C)cc3cn(C(=O)C4(C)CCCCC4)nc3c2C(=O)NC(C)C)n(-c2ncccc2Cl)n1` [P.32]: the mortality at 400 ppm in data set [1], in data set [2], in data set [3], in data set [4], in data set [6] and in [7] was greater than 80% in each case. Besides, in data set [8], the mortality at 400 ppm is greater than 80%.

(Values after patent publication US8598078B2, “Condensed anthran I lami de derivatives as insecticides” (Syngenta Crop Protection, LLC, priority 2007, dated 2013).)
